Experimental data reported in patent publication US7803801B2, “Aminopyridine compounds having Syk inhibitory activity” (Japan Tobacco, Inc., priority 2005, dated 2010).
Like-named read-outs stand apart in the source and are kept apart here.

Key:
[1] = target: GST-Syk Full Protein (human) (Homo sapiens, UniProt P43405); assay: Syk kinase inhibition test (HTRF method); type: biochemical; conditions: HTRF, 100 μM ATP, 30 min room temperature, average; read-out: sykHTRF ave IC50
Outline: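 Human GST-Syk full-length (6.4 nM) phosphorylated biotin-EDPDYEWPSA-NH2 (250 nM) with 100 μM ATP in HEPES pH 7.0/MgCl2 buffer, 2% DMSO, 30 min at room temperature. EDTA stop, then HTRF detection (streptavidin-XL665, Eu anti-phosphotyrosine) after 1 h; 665/620 ratio read.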

[2] = test system: cultured human mast cells; assay: Degranulation inhibition test using cultured human mast cells (IgE cross-linking, β-Hexosaminidase release); type: cell-based; conditions: Mast cell, cultured human mast cells, anti-hIgE stimulation, β-Hexosaminidase index, average, read-out: human degranulation ave. IC50
Outline: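 CD34+ cord-blood cells cultured ≥8 weeks with SCF/IL-6/IL-3; FcεRI primed 5 days with rhIL-4 (1 ng/mL) and hIgE (0.5 μg/mL). Compound (0.1% DMSO) preincubated 10 min at 37 °C, then anti-IgE (final 10 μg/mL) 30 min; released β-hexosaminidase read at 405 nm versus total lysate, IC50 (M).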

| SMILES | IC50 [1] [nM] | IC50 [2] [nM] | IC50 ([2]; Homo sapiens) [nM] |
| --- | --- | --- | --- |
| Cc1ccnc(Nc2cccc(-c3cnc(CCc4ccc(NC(=O)CO)cc4)s3)n2)c1 [Compound A-237, 2-hydroxy-N-[4-(2-{5-[6-(4-methylpyridin-2-ylamino)pyridin-2-yl]thiazol-2-yl}ethyl)phenyl]acetamide] | < 100 | 100 to 1000 | – |
| Cc1ccnc(Nc2cccc(-c3cnc([C@H]4CC[C@H](C(=O)N5CCCC(O)C5)CC4)s3)n2)c1 (stereo partly shown) [Compound A-238] | 100 to 1000 | 100 to 1000 | – |
| Cc1ccnc(Nc2cccc(-c3cnc([C@H]4CC[C@H](C(=O)N5CC[C@H](O)[C@H](O)C5)CC4)s3)n2)c1 [Compound A-239, ((3R,4S)-3,4-dihydroxypiperidin-1-yl)-(trans-4-{5-[6-(4-methylpyridin-2-ylamino)pyridin-2-yl]thiazol-2-yl}cyclohexyl)methanone] | < 100 | 100 to 1000 | – |
| Cc1ccnc(Nc2cccc(-c3cnc([C@H]4CC[C@H](C(=O)N5CC[C@@H](O)C5)CC4)s3)n2)c1 [Compound A-241, ((R)-3-hydroxypyrrolidin-1-yl)-(trans-4-{5-[6-(4-methylpyridin-2-ylamino)pyridin-2-yl]thiazol-2-yl}cyclohexyl)metanone] | < 100 | > 1000 | – |
| Cc1ccnc(Nc2cccc(-c3cnc([C@H]4CC[C@H](C(=O)N5CCC(CO)CC5)CC4)s3)n2)c1 [Compound A-242] | 100 to 1000 | 100 to 1000 | – |
| Cc1ccnc(Nc2cccc(-c3cnc(Cc4ccc(CO)cc4)s3)n2)c1 [Compound A-243, (4-{5-[6-(4-methylpyridin-2-ylamino)pyridin-2-yl]thiazol-2-ylmethyl}phenyl)methanol] | < 100 | 100 to 1000 | – |
| Cc1ccnc(Nc2cccc(-c3cnc(Cc4ccc(C(=O)N5C[C@@H](O)[C@@H](O)C5)cc4)s3)n2)c1 [Compound A-244] | 100 to 1000 | 100 to 1000 | – |
| Cc1ccnc(Nc2cccc(-c3cnc(CCN)s3)n2)c1 [Compound A-245] | 100 to 1000 | 100 to 1000 | – |
| Cc1ccnc(Nc2cccc(-c3cnc(CN4CCN(C(=O)CO)CC4)s3)n2)c1 [Compound A-246] | 100 to 1000 | 100 to 1000 | – |
| Cc1ccnc(Nc2cccc(-c3cnc(CN4CCC(NC(=O)CO)CC4)s3)n2)c1 [Compound A-247] | 100 to 1000 | 100 to 1000 | – |
| Cc1ccnc(Nc2cccc(-c3cnc(Cc4cccnc4)s3)n2)c1 [Compound A-248, N-(4-methylpyridin-2-yl)-N-[6-(2-pyridin-3-ylmethylthiazol-5-yl)pyridin-2-yl]amine] | < 100 | 100 to 1000 | – |
| Cc1ccnc(Nc2cccc(-c3cnc(CC4CCC(C(=O)O)CC4)s3)n2)c1 (stereo not shown) [Compound A-249] | 100 to 1000 | 100 to 1000 | – |
| Cc1ccnc(Nc2cccc(-c3cnc(C4CCN(C(=O)N5CCC(=O)CC5)CC4)s3)n2)c1 [Compound A-250] | 100 to 1000 | – | 100 to 1000 |
| Cc1ccnc(Nc2cccc(-c3cnc(C4CCN(C(=O)N5CCC(O)CC5)CC4)s3)n2)c1 [Compound A-251] | 100 to 1000 | 100 to 1000 | – |
| CCOC(=O)CNC(=O)NCc1ncc(-c2cccc(Nc3cc(C)ccn3)n2)s1 [Compound A-252] | 100 to 1000 | 100 to 1000 | – |
| Cc1ccnc(Nc2cccc(-c3cnc(CNC(=O)NCCO)s3)n2)c1 [Compound A-253] | 100 to 1000 | 100 to 1000 | – |
| Cc1ccnc(Nc2cccc(-c3cnc(CNC(=O)NCC(=O)O)s3)n2)c1 [Compound A-254] | 100 to 1000 | > 1000 | – |
| Cc1ccnc(Nc2cccc(-c3cnc(CC(=O)N4C[C@@H](O)[C@@H](O)C4)s3)n2)c1 [Compound A-255] | 100 to 1000 | 100 to 1000 | – |
| CC(=O)NCCc1ncc(-c2cccc(Nc3cc(C)ccn3)n2)s1 [Compound A-256] | 100 to 1000 | 100 to 1000 | – |
| Cc1ccnc(Nc2cccc(-c3cnc(CCNC(=O)CO)s3)n2)c1 [Compound A-257] | 100 to 1000 | 100 to 1000 | – |
